# Experimental data taken from patent US11066379B2 (THE TEXAS A&M UNIVERSITY SYSTEM, priority 2018, dated 2021).
# How the values were obtained:
# [1] = system: Interleukin-2 (IL-2) production in human T lymphocytes; assay: Interleukin-2 release in Con A-stimulated human T lymphocytes (ELISA); format: cell-based
# Procedure: Then, cells were stimulated with Concanavalin A (Con A) at 50 μg/mL for 48 h to induce IL-2 release. The amount of IL-2 released to the culture medium was evaluated using Human IL-2 ELISA kit. Experiments were carried out four times.
# human T lymphocytes = assay: Viability of human T lymphocytes (MTT assay, 48 h); format: cell-based; settings: for cell toxicity to T-cells: 0.1 μM, in words
# Text: (§1) The MTT (3-[4,5-dimethylthiazol-2-yl]-2,5-diphenyltetrazoliumbromide) assay was used to determine the cytotoxicity of gracilin derivatives in T lymphocytes (Burton, J. D. Methods Mol. Med., 2005, 110, 69-78) and SH-SY5Y cells and the protective effect of these compounds against H2O2 insult in neuroblastoma cells as previously described (Leiros, M., Alonso, E., Sanchez, J. A., Rateb, M. E., Ebel, R., Houssen, W. E., Jaspars, M., Alfonso, A. and Botana, L. M. ACS Chem. Neurosci., 2014, S, 71-80). Human T lymphocytes were cultured in 24 well plates at the concentration of 2.5×10^6 cells/mL and exposed to different compound concentrations (0.01, 0.1, 1 and 10 μM) added to the culture medium. Human T cells were maintained in the presence of the pure compound at 37° C. in humidified 5% CO2/95% air atmosphere for 48 h.
# Saponin was used as cellular death control and its absorbance was subtracted from the other data. After the incubation period with compounds, assay was performed. First cells were centrifuged (1500 rpm, 5 min, 4° C.). The pellets were resuspended in saline solution with MTT (250 μg/mL) and then incubated at 37° C. during 30 min. After washing off excess MTT twice with saline solution, cells were disaggregated with H2O and sonicated for 1 min and the absorbance of the colored formazan salt was measured at 595 nm in a spectrophotometer plate reader. All experiments were performed three times.
# [2] = target: T1, active human CypA protein (Homo sapiens, UniProt P62937); assay: Binding to immobilized CypA by surface plasmon resonance (SPR); settings: for affinity for CypA (association curves, KD) / fold increase in KD toward CypA compared to gracilin A: SPR; for affinity for CypA (association curves, KD): various concentrations; for affinity for CypA (association curves, KD) / immunosuppressive activity (SAR profile, FIG. 2): in words; for immunosuppressive activity (SAR profile, FIG. 2): CypA binding / IL-2 inhibition
# T1 construct: Active human CypA full-length protein was from Abcam; purchased Abcam
# T1 sequence (P62937 whole entry): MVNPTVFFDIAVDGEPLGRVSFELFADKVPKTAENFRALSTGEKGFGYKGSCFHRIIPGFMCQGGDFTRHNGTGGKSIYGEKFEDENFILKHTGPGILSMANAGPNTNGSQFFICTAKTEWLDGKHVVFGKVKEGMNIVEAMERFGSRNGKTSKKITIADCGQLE
# Procedure: Sensor surface activation and ligand immobilization were performed by using HBS-EP as running buffer at a flow rate of 5 μL/min and 25° C. CM5 sensor chips were used as surface where Cyp A or D was immobilized as ligand. The CM5 chip is a glass slide coated with a thin layer of gold with a matrix of carboxymethylated dextran covalently attached. The CM5 chip was activated using an amine coupling kit. […] After activation, the ligand, 100 μg/mL of active human CypA protein dissolved in sodium acetate 10 mM at pH 4.5 was added to be immobilized over a CM5 sensor chip. Finally ethanolamine-HCl was injected to deactivate the remaining active esters and to avoid non-specific binding. […] Once analytes were tested and interaction was observed, individual binding curves were analyzed by determining the kinetic constants of analytes-CypA binding, namely, the observed rate constant (Kobs), the association rate constant (Kass), the dissociation rate constant (Kdiss), and the kinetic equilibrium dissociation constant (KD). At equilibrium, by definition, […]. The pseudo-first order association rate constants Kobs (s^-1) were determined for each compound concentration by using the 1:1 Langmuir association model of BiaEvaluation software (BiaCore, Uppsala, Sweden). Then a representation of Kobs against the corresponding concentration of each compound was done. […] From the equation of these representations, Kass, M^-1 s^-1, gradient of the plot, and […]^-1, intercept of the plot was obtained. Within these two values, the kinetic equilibrium dissociation constant KD for each analyte-CypA binding was obtained. The duration of the sample injection was 2 min at 10 μL/min flow rate. Next, dissociation of bound molecules in HBS-EP buffer flow was studied. The bound drugs were removed from the chip surface before the next injection by adding 1 M Glycine-HCl at pH 2.5 for 1 min. The association phase was used to quantify the compound-CypA or D interactions. All experiments were performed four times.
# SH-SY5Y cells [3] = assay: Cellular toxicity in SH-SY5Y cells (MTT, 24 h); format: cell-based; settings: SH-SY5Y, 24 h incubation; read-out: IC50 (cellular toxicity)
# Text: as §1
# (§2) SH-SY5Y cells were seeded in 96-well plates at a density of 2.5×10^5 cells/mL and allowed to adhere for 24 h. At first, cells were treated only with compounds at concentrations ranging from 10-0.01 μM for 24 h to determine their possible cytotoxic effects. Experiments were carried out three times. For neuroprotective experiments, cells were treated with compounds at non-toxic concentrations (1 μM→1 nM) and 150 μM H2O2 for 6 h. Briefly, cells were washed three times with saline solution and 200 μL of MTT (500 μg/mL) dissolved in saline buffer were added to each well. Following 1 h of incubation at 37° C., the cells were disaggregated with sodium dodecyl sulphate at 5%.
# Absorbance of formazan crystals was measured at 595 nm with a spectrophotometer plate reader. Saponin was used as death control and its absorbance was subtracted from the other data. All experiments were performed four times.
# SH-SY5Y cells [4] = assay: Neuroprotection against H2O2 toxicity, cell viability by MTT; format: cell-based, human; settings: 150 μM H2O2 co-treatment 6 h; 0.01, 0.1 and 1 μM
# Procedure: as §2, with “5%. Absorbance of formazan crystals was measured at 595 nm with a spectrophotometer plate reader. Saponin was used as death control and its absorbance was subtracted from the other data. All experiments were performed four times.” for “5%.”
# SH-SY5Y cells [5] = assay: Intracellular ROS levels (carboxy-H2DCFDA) after H2O2; format: cell-based, human; settings: 150 μM H2O2 co-treatment 6 h
# Procedure: Intracellular levels of reactive oxygen species (ROS) were determined with carboxy-H2DCFDA (5-(and-6)-carboxy-2′,7′-dichlorodihydrofluorescein diacetate). This dye diffuses through the cellular membrane and is converted by cellular esterases to carboxy-H2DCFH (non-fluorescent). When carboxy-H2DCFH is oxidized by ROS, it becomes fluorescent (Halliwell, B. and Whiteman, M. Br. J. Pharmacol., 2004, 142, 231-255). Cells were seeded at a density of 2.5×10^5 cells/mL in 96-well plates and allowed to attach for 24 h. Following treatment with compounds at various concentrations (1 μM→1 nM) and 150 μM H2O2 for 6 h, SH-SY5Y cells were washed twice with serum-free culture medium. Then, carboxy-H2DCFDA 20 μM dissolved in serum-free culture medium was added to each well and the cells were incubated for 1 h at 37° C. After this incubation, the medium with the fluorescent dye was replaced with PBS and the plate was incubated for 30 min at 37° C. Fluorescence was read at 527 nm, with an excitation wavelength of 495 nm. All experiments were performed four times.
compound,measurement,setting,value
"CC(=O)OC1CCC(OC(C)=O)O1 (mixture of isomers) [(±)-9, cis- and trans-2,5-tetrahydrofuran-2,5-diyl diacetate]",Inhibition of IL-2 production,[1]; in words,did not inhibit IL-2 production
same,cell toxicity to T-cells,human T lymphocytes,did not show signs of cell toxicity
same,"affinity for CypA (association curves, KD)",[2],no affinity
"CC(=O)O[C@H]1O[C@@H](OC(C)=O)[C@@H]2CCC(=O)C[C@H]12 [Compound 17, (1S,3R,3aS,7aR)-5-oxooctahydroisobenzofuran-1,3-diyl diacetate]",Inhibition of IL-2 production,[1]; in words,did not inhibit IL-2 production
same,cell toxicity to T-cells,human T lymphocytes,did not show signs of cell toxicity
same,"affinity for CypA (association curves, KD)",[2],no affinity
"CC(=O)OC1OC(OC(C)=O)[C@@H]2CCC=C[C@H]12 (stereo partly drawn) [Compound 18, (3aR,7aS)-1,3,3a,4,5,7a-hexahydroisobenzofuran-1,3-diyl diacetate]",Inhibition of IL-2 production,[1]; in words,did not inhibit IL-2 production
same,cell toxicity to T-cells,human T lymphocytes,did not show signs of cell toxicity
same,"affinity for CypA (association curves, KD)",[2],no affinity
"CC(=O)O[C@@H]1OC[C@H]2CC(=O)CC[C@H]21 [Compound 24, (1S,3aS,7aR)-5-oxooctahydroisobenzofuran-1-yl acetate]","immunosuppressive activity (SAR profile, FIG. 2)",[2],inactive
"CC1(C2=C[C@@H]3COC(=O)[C@@H]3CC2)CCCCC1 [Compound 26, (3aS,7aR)-5-(1-methylcyclohexyl)-3a,6,7,7a-tetrahydroisobenzofuran-1(3H)-one]","immunosuppressive activity (SAR profile, FIG. 2)",[2],inactive
"(0R,3S,3aR,7aS)-6-((R)-1,3,3-trimethyl-cyclohexyl)-1,3,3a,4,5,7a-hexahydroisobenzofuran-1,3-diyl diacetate [Compound 23d]",IC50,SH-SY5Y cells [3],1400 nM
same,Inhibition of IL-2 production,"[1]; 2 h pre-treatment at non-toxic concentration, Con A 50 μg/mL 48 h",46%
same,impact on T-cell viability,human T lymphocytes,no impact on cell viability
same,fold increase in KD toward CypA compared to gracilin A,[2],~1000 fold
"(1S,3R,3aS,7aR)-5-((S)-1,3,3-trimethylcyclohexyl)-1,3,3a,4,7,7a-hexahydroisoben-zofuran-1,3-diyl diacetate [Compound 23a]",IC50,SH-SY5Y cells [3],1400 nM
same,decrease in cell viability,human T lymphocytes,~10%
same,protection of cell viability against H2O2 insult,SH-SY5Y cells [4],protected cells against H2O2 insult at almost all concentrations
same,fold increase in KD toward CypA compared to gracilin A,[2],~1000 fold
same,ROS levels,SH-SY5Y cells [5],diminishing ROS at two or three concentrations
